The text below walks through data of publication PMC8158122, “Development of Pelubiprofen Tromethamine with Improved Gastrointestinal Safety and Absorption” (Pharmaceutics, 2021).

Data set [1] in a line: Solubility at various pH values. The conditions noted are these: thermodynamic from solid, stirred 24 h, mean ± S.D. (n = 3). In kind it is physicochemical. As for the experimental part: (§1) PEL and butylparaben (IS) were prepared and further diluted in a mixture of methanol and deionized water at a ratio of 4:1 (v/v) to provide a working PEL and IS solution of concentration 30 µg/mL. The PEL concentration was determined using an HPLC system (Model 1260; Agilent Technologies Inc., Santa Clara, CA, USA). Chromatographic separation was performed using a C18 column (4.6 × 150 mm, 5 µm, Waters, Milford, MA, USA) at a flow rate of 1.1 mL/min with the mobile phase consisting of methanol, water, and acetic acid at a ratio of 1200:800:1 (v/v). The sample was injected into the column, and the peaks were monitored using a UV detector at 274 nm.
The solubilities of PEL-T and PEL were compared and evaluated based on the pH changes. After dissolving 5 g of PEL-T and PEL each in 5 mL of water, a pH 1.2 solution, a pH 4.0 solution, and a pH 6.8 solution, respectively, the mixtures were stirred for 24 h, filtered using a 0.45 μm polyvinylidene difluoride (PVDF) syringe filter, and then were analyzed using an HPLC assay, as described above (Section 2.4).

Data set [2] is described as follows: PK study in rats after oral administration. In kind it is in vivo, Sprague-Dawley (SD) rats. The conditions noted are these: male, Sprague-Dawley, rat, PEL in plasma, single oral dose 9.3 mg/kg PEL equivalent, n = 10.
Protocol: Male Sprague-Dawley (SD) rats (8-weeks-old) from DBL Co., Ltd. (Eumseong, Korea) were maintained under constant laboratory conditions (temperature: 22 ± 3 °C, RH: 50 ± 20%, light/dark cycle: 12 h). The rats were divided into two groups, each composed of 10 rats. The animals were fasted overnight and were only allowed free access to water. […] Blood samples (500 μL) were collected directly from the jugular vein at predetermined time points (0, 0.083, 0.167, 0.25, 0.5, 0.75, 1, 2, 3, 4, and 8 h) using heparinized syringes. The collected blood samples were centrifuged immediately at 12,000 rpm for 5 min at 4 °C and the obtained plasma samples were stored at −70 °C until analysis.
The plasma concentration of PEL was determined using LC–MS/MS (Agilent 1260; Agilent Technologies Inc., Santa Clara, CA, USA). The chromatographic separation of PEL was performed using an ODS column (Poroshell 120 EC-C18, 2.1 × 30 mm, 2.7 µm, Agilent Technologies Inc., Santa Clara, CA, USA). The mobile phase (MP) consisted of 0.1% formic acid and acetonitrile with a gradient elution and the flow rate used was 0.4 mL/min. Mass spectrometric detection was done using an AB Sciex API 4000 triple quadrupole mass spectrometer (AB Sciex Instruments, Framingham, MA, USA). The electrospray ionization (ESI) source was set to positive ion mode. The mass-to-charge ratios (m/z) used were 259.0 → 195.2 for PEL and 255.1 → 208.9 for ketoprofen, which were used as the internal standards (IS). […] The assay method was validated for linearity, accuracy, and precision.
The PK parameters for PEL were calculated using the noncompartmental analysis and WinNonlin® 8.1 (Pharsight, CA, USA). The area under the plasma concentration–time curve from 0 h to the last time point (AUCt) was calculated for all samples using the linear trapezoidal method. The maximum plasma concentration and time to reach the maximum plasma concentration (Tmax) were directly obtained from the plasma concentration–time profiles.
Details of data set [3]: method as in PMID 27492018, doi:10.2133/dmpk.10.637. The conditions noted are these: oral administration, rats; cited from earlier work.
For the next data set, the system named is gastric mucosa. Nature of the data set: Gastric mucosal injury test in rats. In kind it is in vivo, Sprague-Dawley (SD) rats. The conditions noted are these: single p.o. dose equivalent to PEL 300 mg/kg, 6 h after dosing, 48 h fasted male SD rats, n = 10. As for the experimental part:
The gastric mucosal injury test was performed by KNOTUS Co., Ltd. (Guri, Korea) and approved by the Animal Ethics Committee (Protocol number: […]-354 approved 18 October 2018). Male Sprague-Dawley (SD) rats (7-weeks-old) from Orient bio Co., Ltd. […] The rats were randomly divided into three groups, each group consisting of 10 animals. […] The area of the lesions was analyzed using ImageJ software (National Institutes of Health, Bethesda, MD, USA).

A further data set relates to Caco-2 cells. Nature of the data set: Permeability test in Caco-2 cell monolayers. In kind it is in vitro ADME.
Data set [4] is described as follows: Permeability test in Caco-2 cell monolayers. The settings on record: human, Caco-2; Kp [B to A]/Kp [A to B]. In kind it is in vitro ADME. On the technique in general: Caco-2 monolayers are a common model of the intestinal barrier.
Protocol: (§2) Caco-2 monolayer experiments were performed as previously described with a few modifications [20]. The Caco-2 cells were obtained from the Korean Cell Line Bank (Seoul, Korea) and used in the transport experiments between passages 40 and 50. The cells were cultured at 37 °C with 5% CO2 and maintained in Dulbecco’s modified Eagle’s medium with 10% fetal bovine serum, 1% nonessential amino acids, 10,000 units/mL penicillin, and 10,000 μg/mL streptomycin. For the transport studies, cells were seeded on rat tail collagen-coated Transwell insert filters on 12-well plates at 3 × 10^5 cells/500 μL and were cultured for 21–29 days. For the first 7 days, the medium was replaced every 2–3 days, and daily thereafter. Monolayer integrity was checked before and after each experiment using a Millicell-ERS instrument to determine the transepithelial electrical resistance (TEER) across the monolayer and to ensure that there were no substantial changes in the monolayer integrity throughout the duration of the experiments.
(§3) Prior to transport experiments, the cell monolayers were washed twice using Hank’s balanced salt solution (HBSS), and the Caco-2 cell Transwell model was preincubated at 37 °C for 15 min. […] The sample was pretreated using a protein precipitation method and the concentrations of PEL in each sample were determined using an LC–MS/MS assay, as described below (Section 2.9). […] The sample was pretreated using a protein precipitation method and the concentration of PEL in each sample was determined using an LC–MS/MS assay. The steady state flux (Js) and permeability coefficient (Kp) were calculated according to Equations (1) and (2):Js [ng/(cm^2 × h)] = Qr/(A × t)(1) Kp (cm/h) = Js/Cd(2) where Qr is the total permeation amount of PEL in the basolateral (for the absorptive transport) or apical (for the secretory transport) side (ng), A is the surface area of the insert (1.12 cm^2), t is the permeation time (h), and Cd is the initial drug concentration in the apical (for the absorptive transport) or basolateral (for the secretory transport) side (ng/cm^3). […]
Details of data set [5]: method as in PMID 27492018, doi:10.2133/dmpk.10.637. The settings on record: oral administration, cited from earlier work.
The nature of data set [6]: Stress stability test (high temperature or high humidity). In kind it is physicochemical. As for the experimental part:
as §1
Stability tests of PEL-T and PEL were performed under stress storage conditions. PEL-T and PEL were packed into high-density polyethylene (HDPE) bottles with caps and used as stability test samples. For stress stability, the samples were stored at a high temperature (80 ± 5 °C) or high humidity (relative humidity (RH) 90 ± 5%). The drug content and impurities were determined using the HPLC assay described above (Section 2.4) at the following time points: 0, 14, and 21 days (Tables S3 and S4).

SMILES strings stand for the structures. Values after ≈ are worked out from the molar mass of the structure shown. Like-named read-outs stand apart in the source and are kept apart here.

Protocol for Caco-2 cells: as §2, §3

As a reminder, the solubility is the concentration that dissolves in the medium under given conditions. Low readings indicate little dissolved substance, high ones much dissolved substance. As a reminder, the AUC(0-t) is the area under the concentration-time curve up to a stated or last time point. For orientation: Cmax means the maximum level reached in the sampled fluid or tissue. As a reminder, the Tmax is the time from dosing to the highest level. As a reminder, the efflux ratio is a quotient of directional permeabilities that is used to spot active efflux. Consider `CC(C(=O)O)c1ccc(C=C2CCCCC2=O)cc1` (stereo not drawn) [PEL, 2-[4-(2-oxocyclohexylidenemethyl)phenyl] propionic acid], for which the solubility at 24 h in data set [1] (aqueous buffer, pH 4.0 solution) was 70 ± 40 µg/mL (≈ 271 µM); in data set [1] (aqueous buffer, pH 6.8 solution), 4050 ± 140 µg/mL (≈ 15700 µM); in data set [1] (simulated gastric fluid, pH 1.2 solution), 30 ± 10 µg/mL (≈ 116 µM); in data set [1] (water), 130 ± 30 µg/mL (≈ 503 µM). Moreover, the AUC(0-t) in data set [2] was determined as 19.2 ± 7.01 ng·h/mL. In addition, the Cmax in data set [2] was determined as 46.3 ± 29.2 ng/mL. For the same molecule, the Tmax in data set [2] (plasma, po, 9.3 mg/kg) amounted to 23.4 ± 11.4 min. In addition, the “Time to reach the maximum plasma concentration (Cmax)” value is given as 30 min in data set [3], 2 h in data set [5] (female beagle dogs) and 1 h in data set [5] (male beagle dogs). For the same molecule, the “Damage area (mucosal hemorrhagic lesions)” value in the data set with gastric mucosa worked out at 4.01%. Besides, the “Efflux ratio, times higher than that of PEL-T” value with Caco-2 cells was found to be 1.6 times. Further, the “Kp B to A, times higher than that of PEL-T” value in the data set on Caco-2 cells (secretory direction, not statistically significant) turned out to be 1.3 times. Further, in data set [4], the efflux ratio at 120 min, 50 μM was found to be 1.24. Besides, the “Changes in the drug contents in the stress stability test” value in data set [6] (80 ± 5 °C or RH 90 ± 5%, entire period (21 days)) was “No significant changes”. Further, the Contents in data set [6] (80 ± 5 °C, 0 days) was found to be 98.6 ± 0.8%; in data set [6] (80 ± 5 °C, 14 days), 98.2 ± 0.6%; in data set [6] (80 ± 5 °C, 21 days) it was 97.1 ± 0.9%; in data set [6] (RH 90 ± 5%, 0 days), 98.6 ± 0.8%; in data set [6] (RH 90 ± 5%, 14 days), 98.9 ± 0.4%; in data set [6] (RH 90 ± 5%, 21 days), 98.5 ± 0.4%.
